One assay relates to LptB2F^E249KGC. Briefly: LPS release assay, LptB2F(E249K)GC. It counts as biochemical, Acinetobacter baylyi. Conditions: LptF E249K complex, E. coli LPS. On the procedure: Proteoliposomes were prepared as described previously. Aqueous E. coli polar lipid extract (Avanti Polar Lipids) (30 mg ml^−1) and aqueous LPS from E. coli EH100 (Ra mutant; Sigma) (2 mg ml^−1) were sonicated briefly for homogenization. For experiments testing the effect of LPS structure, we used LPS isolated from either GKM374 (BL21DE3 eptA::catR arnA::kanR eptC::gentR) or TXM418 (BL21DE3 eptA::catR arnA::FRT eptB::gentR lpxM::kanR) as described previously. A mixture of 20 mM Tris-HCl (pH 8.0), 150 mM NaCl, 7.5 mg ml^−1 of E. coli polar lipids, 0.5 mg ml^−1 of LPS and 0.25% DDM was prepared and kept on ice for 10 min. Purified LptB2FGC or LptB2FG was added to a final concentration of 0.86 μM and the mixture was left on ice for 20 min. The mixture was diluted 100-fold with cold 20 mM Tris-HCl (pH 8.0) and 150 mM NaCl and kept on ice for 20 min. The proteoliposomes were pelleted (300,000g, 2 h, 4 °C), resuspended in 20 mM Tris-HCl (pH 8.0) and 150 mM NaCl, diluted 100× and centrifuged (300,000g, 2 h, 4 °C). The pellets were resuspended in a mixture of 20 mM Tris-HCl (pH 8.0), 150 mM NaCl and 10% glycerol (250 μl per 100 μl of the original predilution solution), homogenized by sonication, flash frozen and stored at −80 °C until use.
The amounts of release of LPS from proteoliposomes to LptA were measured as previously described. […]

The target in another assay is T1, E. coli LptB2FGC (Escherichia coli, UniProt P0ADC6+P0AF98).
T1 construct: made in house
T1 sequence (P0AF98 whole entry): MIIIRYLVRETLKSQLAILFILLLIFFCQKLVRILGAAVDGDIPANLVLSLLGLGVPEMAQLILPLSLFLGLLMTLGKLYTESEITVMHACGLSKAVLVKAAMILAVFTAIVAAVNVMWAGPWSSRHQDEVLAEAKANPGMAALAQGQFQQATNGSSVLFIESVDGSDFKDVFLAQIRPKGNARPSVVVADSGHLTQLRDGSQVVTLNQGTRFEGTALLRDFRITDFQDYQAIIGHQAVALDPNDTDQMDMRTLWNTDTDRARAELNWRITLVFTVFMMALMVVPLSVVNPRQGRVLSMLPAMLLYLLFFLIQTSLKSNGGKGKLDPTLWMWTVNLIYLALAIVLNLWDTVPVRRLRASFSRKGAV
T1 sequence (P0ADC6 whole entry): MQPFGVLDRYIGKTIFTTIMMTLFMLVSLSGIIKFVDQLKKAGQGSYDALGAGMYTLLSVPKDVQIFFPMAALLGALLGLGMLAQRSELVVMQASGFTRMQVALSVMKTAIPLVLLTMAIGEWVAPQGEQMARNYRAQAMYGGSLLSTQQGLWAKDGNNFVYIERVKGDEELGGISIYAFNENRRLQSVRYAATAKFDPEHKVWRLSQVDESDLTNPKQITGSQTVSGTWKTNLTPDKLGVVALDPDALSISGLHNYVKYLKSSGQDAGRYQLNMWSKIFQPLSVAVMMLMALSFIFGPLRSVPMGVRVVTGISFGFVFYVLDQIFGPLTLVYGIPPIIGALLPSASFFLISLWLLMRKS
T1 sequence (P0A9V1 whole entry partner): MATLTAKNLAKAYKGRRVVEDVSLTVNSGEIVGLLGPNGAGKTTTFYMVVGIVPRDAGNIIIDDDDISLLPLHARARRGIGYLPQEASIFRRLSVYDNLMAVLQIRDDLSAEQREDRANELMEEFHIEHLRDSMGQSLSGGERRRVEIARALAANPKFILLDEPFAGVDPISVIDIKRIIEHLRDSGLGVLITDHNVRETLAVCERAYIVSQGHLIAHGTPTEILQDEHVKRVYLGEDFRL
T1 sequence (P0ADV9 whole entry partner): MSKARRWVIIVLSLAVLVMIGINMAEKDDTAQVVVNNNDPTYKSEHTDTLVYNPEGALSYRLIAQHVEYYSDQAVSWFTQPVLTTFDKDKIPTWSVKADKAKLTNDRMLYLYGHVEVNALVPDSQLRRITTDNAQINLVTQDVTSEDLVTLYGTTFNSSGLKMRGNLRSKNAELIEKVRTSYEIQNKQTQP
The experiment in a line: LPS release assay, E. coli LptB2FGC. It counts as biochemical. Conditions: wild-type E. coli LptB2FGC, 60 min.

Data on two compounds can be found in paper PMC10794137, “A new antibiotic traps lipopolysaccharide in its intermembrane transporter” (Nature, 2024).

Method for E. coli LptB2FGC: The amounts of release of LPS from proteoliposomes to LptA were measured as previously described[20]. Assays used 60% proteoliposomes (by volume) in a solution containing 50 mM Tris-HCl (pH 8.0), 500 mM NaCl, 10% glycerol and 2 µM LptA^I36pBPA. Reaction mixtures were incubated with drug for 10 min at room temperature, as applicable. Reactions were then initiated by the addition of ATP and MgCl2 (final concentrations of 5 mM and 2 mM, respectively) and proceeded at 30 °C. Aliquots (25 µl) were removed from the reaction mixtures and irradiated with ultraviolet (UV) light (365 nm) on ice for 10 min using a B-100AP lamp (Fisher Scientific).

Consider `CN1C(=O)[C@H](CCCCN)NC(=O)[C@H](CCCN)NCc2cccnc2Sc2c(Cl)ccc(-c3ccc(N)nc3)c2CNC(=O)[C@@H]1Cc1c[nH]c2ccccc12` [Compound 1], for which, in the assay on LptB2F^E249KGC, the “Inhibition of LPS release to LptA” value is listed as “did not block LPS release”.

Regarding `CN1C(=O)[C@H](CCCCN)NC(=O)[C@H](CCCN)NCc2cccnc2Sc2cccc(-c3ccc(C(=O)O)cc3)c2CNC(=O)[C@@H]1Cc1c[nH]c2ccccc12` [Compound 2, Zosurabalpin], the “Inhibition of LPS transport to LptA” value on E. coli LptB2FGC is “does not inhibits LPS transport”.
